Reference: article PMC11834572, “MoxR effects as an ATPase on anti-stress and pathogenicity of Riemerella anatipestifer” (Veterinary Research, 2025)

Molecular target: T1, His6-MoxR (Riemerella anatipestifer, UniProt E4TDR4)
T1 construct: gene RA0C_2065
Conditions: 37 °C, 1 h; ATP or His6-MoxR concentration varied

T1 sequence (E4TDR4 entry or part of it): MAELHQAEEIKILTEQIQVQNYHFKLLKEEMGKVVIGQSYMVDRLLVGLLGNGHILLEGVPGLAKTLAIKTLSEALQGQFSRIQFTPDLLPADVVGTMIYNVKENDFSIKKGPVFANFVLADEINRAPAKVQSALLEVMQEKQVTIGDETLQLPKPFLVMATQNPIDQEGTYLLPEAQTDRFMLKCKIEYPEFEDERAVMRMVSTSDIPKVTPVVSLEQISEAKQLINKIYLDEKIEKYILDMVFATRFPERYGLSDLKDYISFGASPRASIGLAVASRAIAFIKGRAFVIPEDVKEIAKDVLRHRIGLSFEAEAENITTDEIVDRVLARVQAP

Nc1ncnc2c1ncn2[C@@H]1O[C@H](COP(=O)(O)OP(=O)(O)OP(=O)(O)O)[C@@H](O)[C@H]1O [ATP]
phosphate release, molybdenum blue, absorbance at 660 nm: concentration of phosphate groups in each reaction system increased with higher amounts of His6-MoxR and ATP
